# According to PubChem BioAssay (NCI):
#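 Protocol summary: plate cells (96-well), add compound at 5 concentrations, incubate 48 h, interpolate endpoints linearly. Abbreviation: GI50, concentration required for 50% inhibition of growth. At the TGI there is no net growth.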
# Key:
# Assay in all cases: growth of human tumour cells (NCI), 48 h
# [1] = test system: KM12 colon
# [2] = test system: A498 renal
# [3] = test system: SF-268 CNS
# [4] = test system: SNB-19 CNS
# [5] = test system: RPMI-8226 leukemia
# [6] = test system: MDA-MB-231 breast
# [7] = test system: HCT-116 colon
# [8] = test system: K-562 leukemia
# [9] = test system: HS 578T breast
# [10] = test system: COLO 205 colon
# [11] = test system: HT29 colon
# [12] = test system: SNB-75 CNS
# [13] = test system: HL-60(TB) leukemia
# [14] = test system: A549 NSCLC
# [15] = test system: SK-MEL-2 melanoma
# [16] = test system: OVCAR-5 ovarian
# [17] = test system: MALME-3M melanoma
# [18] = test system: HCT-15 colon
# [19] = test system: CCRF-CEM leukemia
# [20] = test system: SF-295 CNS
# [21] = test system: HOP-92 NSCLC
# [22] = test system: MOLT-4 leukemia
# [23] = test system: MCF7 breast
# [24] = test system: PC-3 prostate
# [25] = test system: SK-MEL-5 melanoma
# [26] = test system: NCI-H226 lung
# [27] = test system: IGROV1 ovarian
# [28] = test system: NCI-H23 lung
# [29] = test system: T-47D breast
# [30] = test system: HOP-62 NSCLC
# [31] = test system: OVCAR-3 ovarian
# [32] = test system: OVCAR-4 ovarian
# [33] = test system: U251 CNS
# [34] = test system: MDA-MB-435
# [35] = test system: NCI/ADR-RES ovarian
# [36] = test system: SK-OV-3 ovarian
# [37] = test system: NCI-H522 lung
# [38] = test system: SN12C renal
# [39] = test system: HCC-2998 colon
# [40] = test system: LOX IMVI melanoma
# [41] = test system: TK-10 renal
# [42] = test system: SW-620 colon
# [43] = test system: MDA-N
# [44] = test system: M14 melanoma
# [45] = test system: EKVX NSCLC
# [46] = test system: ACHN renal
# [47] = test system: 786-0 renal
# [48] = test system: DU-145 prostate
# [49] = test system: RXF 393 renal
# [50] = test system: CAKI-1 renal
# [51] = test system: UACC-257 melanoma
# [52] = test system: SF-539 CNS
# [53] = test system: UO-31 renal
# [54] = test system: SK-MEL-28 melanoma
# [55] = test system: OVCAR-8 ovarian
# [56] = test system: NCI-H460 lung
# [57] = test system: BT-549 breast
# [58] = test system: UACC-62 melanoma
# [59] = test system: SR leukemia
structure (smiles),measurement,setting,value
CCCCCCCCCC(=O)CC(=O)c1c(O)cc(O)cc1O,TGI,[1],42.8 µM
same,TGI,[2],71.3 µM
same,TGI,[3],49.5 µM
same,TGI,[4],68.1 µM
same,TGI,[5],37.1 µM
same,TGI,[6],> 75 µM
same,TGI,[7],> 75 µM
same,TGI,[8],36.3 µM
same,TGI,[9],44.9 µM
same,TGI,[10],> 75 µM
same,TGI,[11],38.8 µM
same,TGI,[12],69.6 µM
same,TGI,[13],42.8 µM
same,TGI,[14],> 75 µM
same,TGI,[15],40.9 µM
same,TGI,[16],48.2 µM
same,TGI,[17],32.1 µM
same,TGI,[18],43.8 µM
same,TGI,[19],> 75 µM
same,TGI,[20],68.2 µM
same,TGI,[21],44.7 µM
same,TGI,[22],32.1 µM
same,TGI,[23],> 75 µM
same,TGI,[24],41.8 µM
same,TGI,[25],28.6 µM
same,TGI,[26],36.2 µM
same,TGI,[27],> 75 µM
same,TGI,[28],35.9 µM
same,TGI,[29],> 75 µM
same,TGI,[30],32.5 µM
same,TGI,[31],53.2 µM
same,TGI,[32],35.8 µM
same,TGI,[33],> 75 µM
same,TGI,[34],39.1 µM
same,TGI,[35],38.6 µM
same,TGI,[36],> 75 µM
same,TGI,[37],47.3 µM
same,TGI,[38],37.3 µM
same,TGI,[39],31.4 µM
same,TGI,[40],35.4 µM
same,TGI,[41],> 75 µM
same,TGI,[42],> 75 µM
same,TGI,[43],38 µM
same,TGI,[44],39 µM
same,TGI,[45],> 75 µM
same,TGI,[46],> 75 µM
same,TGI,[47],> 75 µM
same,TGI,[48],57.9 µM
same,TGI,[49],31.1 µM
same,TGI,[50],> 75 µM
same,TGI,[51],63.4 µM
same,TGI,[52],43.3 µM
same,TGI,[53],31.7 µM
same,TGI,[54],72.8 µM
same,TGI,[55],36.9 µM
CCCCCCC1N=C(N)N=C(N)N1c1ccc(Cl)cc1 (stereo unspecified),GI50,[1],10.4 µM
same,TGI,[1],22.9 µM
same,GI50,[2],7.05 µM
same,TGI,[2],24.8 µM
same,GI50,[3],3.78 µM
same,TGI,[3],21.7 µM
same,GI50,[4],8.62 µM
same,TGI,[4],24.9 µM
same,GI50,[5],8.62 µM
same,TGI,[5],30 µM
same,GI50,[6],11.2 µM
same,TGI,[6],25.9 µM
same,GI50,[7],3.2 µM
same,TGI,[7],15.8 µM
same,GI50,[56],4.69 µM
same,TGI,[56],18.5 µM
same,GI50,[8],5.55 µM
same,TGI,[8],> 100 µM
same,GI50,[9],2350 nM
same,TGI,[9],18.2 µM
same,GI50,[10],12.5 µM
same,TGI,[10],26.7 µM
same,GI50,[11],2660 nM
same,TGI,[11],16.8 µM
same,GI50,[12],6.31 µM
same,TGI,[12],33.5 µM
same,GI50,[13],10.1 µM
same,TGI,[13],28.3 µM
same,GI50,[14],4.83 µM
same,TGI,[14],> 100 µM
same,GI50,[15],11.7 µM
same,TGI,[15],26.3 µM
same,GI50,[16],10.7 µM
same,TGI,[16],> 100 µM
same,GI50,[17],2100 nM
same,TGI,[17],21 µM
same,GI50,[18],> 100 µM
same,TGI,[18],> 100 µM
same,GI50,[19],4.67 µM
same,TGI,[19],81.3 µM
same,GI50,[20],2580 nM
same,TGI,[20],17.6 µM
same,GI50,[21],2620 nM
same,TGI,[21],22.1 µM
same,GI50,[22],7.03 µM
same,TGI,[22],32.5 µM
same,GI50,[23],11.4 µM
same,TGI,[23],25.6 µM
same,GI50,[24],2900 nM
same,TGI,[24],52.8 µM
same,GI50,[25],3.47 µM
same,TGI,[25],14.7 µM
same,GI50,[26],13.2 µM
same,TGI,[26],54.2 µM
same,GI50,[27],3.53 µM
same,TGI,[27],17.4 µM
same,GI50,[28],5.79 µM
same,TGI,[28],38 µM
same,GI50,[29],20 µM
same,TGI,[29],70.5 µM
same,GI50,[30],6.93 µM
same,TGI,[30],39.6 µM
same,GI50,[31],12.2 µM
same,TGI,[31],32.6 µM
same,GI50,[32],14.4 µM
same,TGI,[32],60 µM
same,GI50,[33],2530 nM
same,TGI,[33],14.7 µM
same,GI50,[34],3.36 µM
same,TGI,[34],17.5 µM
same,GI50,[35],> 100 µM
same,TGI,[35],> 100 µM
same,GI50,[36],20.9 µM
same,TGI,[36],63.1 µM
same,GI50,[57],3.37 µM
same,TGI,[57],18.3 µM
same,GI50,[37],6.53 µM
same,TGI,[37],22.2 µM
same,GI50,[38],3.76 µM
same,TGI,[38],16.1 µM
same,GI50,[39],8.95 µM
same,TGI,[39],22 µM
same,GI50,[40],3.87 µM
same,TGI,[40],14.7 µM
same,GI50,[41],31.4 µM
same,TGI,[41],> 100 µM
same,GI50,[42],4.05 µM
same,TGI,[42],32.2 µM
same,GI50,[58],8.55 µM
same,TGI,[58],37.6 µM
same,GI50,[44],3.04 µM
same,TGI,[44],23.5 µM
same,GI50,[45],8.7 µM
same,TGI,[45],45.4 µM
same,GI50,[46],> 100 µM
same,TGI,[46],> 100 µM
same,GI50,[59],3000 nM
same,TGI,[59],11.9 µM
same,GI50,[47],4.63 µM
same,TGI,[47],47.1 µM
same,GI50,[48],12.1 µM
same,TGI,[48],> 100 µM
same,GI50,[49],10.6 µM
same,TGI,[49],38.6 µM
same,GI50,[50],> 100 µM
same,TGI,[50],> 100 µM
same,GI50,[51],13 µM
same,TGI,[51],68.8 µM
same,GI50,[52],4.16 µM
same,TGI,[52],18 µM
same,GI50,[53],57.1 µM
same,TGI,[53],> 100 µM
same,GI50,[54],8.66 µM
same,TGI,[54],21.8 µM
same,GI50,[55],6.43 µM
same,TGI,[55],> 100 µM
